Test results from PubChem BioAssay (NCI).
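The compound was tested at five concentrations on cells cultured in 96-well plates, with a 48-hour exposure period. TGI is the concentration that stops growth completely.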

Assays:
Assay in all cases: inhibition of tumour cell growth, NCI panel, 48 h
CAKI-1 renal = system: CAKI-1 renal
K-562 leukemia = system: K-562 leukemia
OVCAR-8 ovarian = system: OVCAR-8 ovarian
MALME-3M melanoma = system: MALME-3M melanoma
SNB-19 CNS = system: SNB-19 CNS
SF-268 CNS = system: SF-268 CNS
SN12C renal = system: SN12C renal
MCF7 breast = system: MCF7 breast
MOLT-4 leukemia = system: MOLT-4 leukemia
M14 melanoma = system: M14 melanoma

CCc1nc2cc3cccnc3c(Cl)c2[nH]c1=O
TGI (CAKI-1 renal): > 100 µM
TGI (K-562 leukemia): > 100 µM
TGI (OVCAR-8 ovarian): > 100 µM
TGI (MALME-3M melanoma): > 100 µM
TGI (SNB-19 CNS): > 100 µM
TGI (SF-268 CNS): > 100 µM
TGI (SN12C renal): > 100 µM
TGI (MCF7 breast): > 100 µM
TGI (MOLT-4 leukemia): > 100 µM
TGI (M14 melanoma): > 100 µM

CC1C(c2ccc3c(c2)OCO3)c2cc3c(cc2OC1N1CCOCC1)OCO3 (stereo not given)
TGI (CAKI-1 renal): > 82.7 µM
TGI (K-562 leukemia): 67.7 µM
TGI (OVCAR-8 ovarian): > 100 µM
TGI (MALME-3M melanoma): 97.6 µM
TGI (SNB-19 CNS): 86.5 µM
TGI (SF-268 CNS): > 100 µM
TGI (SN12C renal): > 100 µM
TGI (MCF7 breast): 65.8 µM
TGI (MOLT-4 leukemia): 66.9 µM
TGI (M14 melanoma): 76.9 µM

COC(=O)C1=C(C)NC(C)=C([N+](=O)[O-])C1c1cccc(N=O)c1 (stereo not given)
TGI (CAKI-1 renal): 20.6 µM
TGI (K-562 leukemia): > 100 µM
TGI (OVCAR-8 ovarian): 32.1 µM
TGI (MALME-3M melanoma): 25.2 µM
TGI (SNB-19 CNS): > 100 µM
TGI (SF-268 CNS): 32 µM
TGI (SN12C renal): 34.5 µM
TGI (MCF7 breast): 38.5 µM
TGI (MOLT-4 leukemia): > 100 µM
TGI (M14 melanoma): 25.8 µM

COc1cc2c(cc1OC)C13CC[N+]4(C)CC5=CCOC6CC(=O)N2C1C6C5CC34[O-] (stereo not given)
TGI (CAKI-1 renal): > 100 µM
TGI (K-562 leukemia): > 100 µM
TGI (OVCAR-8 ovarian): > 100 µM
TGI (MALME-3M melanoma): > 100 µM
TGI (SNB-19 CNS): > 100 µM
TGI (SF-268 CNS): > 100 µM
TGI (SN12C renal): > 100 µM
TGI (MCF7 breast): > 100 µM
TGI (MOLT-4 leukemia): > 100 µM
TGI (M14 melanoma): > 100 µM

COc1cc(CNc2nc3cc(C(F)(F)F)ccc3nc2-c2ccccc2)cc(OC)c1OC
TGI (CAKI-1 renal): > 100 µM
TGI (K-562 leukemia): > 100 µM
TGI (OVCAR-8 ovarian): > 100 µM
TGI (MALME-3M melanoma): 72 µM
TGI (SNB-19 CNS): > 100 µM
TGI (SF-268 CNS): > 100 µM
TGI (SN12C renal): > 100 µM
TGI (MCF7 breast): 22.4 µM
TGI (MOLT-4 leukemia): > 100 µM
TGI (M14 melanoma): > 100 µM

O=C(CNCc1ccccc1)Oc1c(Cl)c(Cl)c(Cl)c(Cl)c1Cl
TGI (CAKI-1 renal): 56.1 µM
TGI (K-562 leukemia): > 100 µM
TGI (OVCAR-8 ovarian): 48.8 µM
TGI (MALME-3M melanoma): 65.3 µM
TGI (SNB-19 CNS): > 100 µM
TGI (SF-268 CNS): > 100 µM
TGI (SN12C renal): > 100 µM
TGI (MCF7 breast): > 100 µM
TGI (MOLT-4 leukemia): 50.6 µM
TGI (M14 melanoma): > 100 µM

Cc1cn2c(C)csc2c1P(=O)(OC(C)C)OC(C)C
TGI (CAKI-1 renal): > 100 µM
TGI (K-562 leukemia): > 100 µM
TGI (OVCAR-8 ovarian): > 100 µM
TGI (MALME-3M melanoma): > 100 µM
TGI (SNB-19 CNS): > 100 µM
TGI (SF-268 CNS): > 100 µM
TGI (SN12C renal): > 100 µM
TGI (MCF7 breast): > 100 µM
TGI (MOLT-4 leukemia): > 100 µM
TGI (M14 melanoma): > 100 µM

OC1(c2ccc(Cl)cc2)c2ccc(CN3CCCC3)cc2C2=NCCN21 (stereo not given)
TGI (CAKI-1 renal): 31.7 µM
TGI (K-562 leukemia): 45.2 µM
TGI (OVCAR-8 ovarian): 29.9 µM
TGI (MALME-3M melanoma): 25.2 µM
TGI (SNB-19 CNS): 31.1 µM
TGI (SF-268 CNS): 29.7 µM
TGI (SN12C renal): 31.7 µM
TGI (MCF7 breast): 33.4 µM
TGI (MOLT-4 leukemia): 41.9 µM
TGI (M14 melanoma): 12.8 µM

C=C1C(=O)OC2/C=C(/C)C3(O)OC(C)(CC(OC(=O)C(C)C)C12)CC3OC(C)=O (stereo not given)
TGI (CAKI-1 renal): 7.18 µM
TGI (K-562 leukemia): > 100 µM
TGI (OVCAR-8 ovarian): > 100 µM
TGI (MALME-3M melanoma): 36.5 µM
TGI (SNB-19 CNS): 36.6 µM
TGI (SF-268 CNS): > 100 µM
TGI (SN12C renal): 17.5 µM
TGI (MCF7 breast): 26.3 µM
TGI (MOLT-4 leukemia): > 31.6 µM
TGI (M14 melanoma): 68 µM

COC(=O)C1(Cc2ccc3c(c2)CCC3)Cc2ccccc2C1=O (stereo not given)
TGI (CAKI-1 renal): > 100 µM
TGI (K-562 leukemia): 48.4 µM
TGI (OVCAR-8 ovarian): > 100 µM
TGI (MALME-3M melanoma): > 100 µM
TGI (SNB-19 CNS): > 100 µM
TGI (SF-268 CNS): 70.7 µM
TGI (SN12C renal): > 100 µM
TGI (MCF7 breast): 70.1 µM
TGI (MOLT-4 leukemia): 52.3 µM
TGI (M14 melanoma): 32.4 µM

Cc1ccc(S(=O)(=O)NC(=O)NNc2ccc(F)cc2)cc1
TGI (CAKI-1 renal): > 100 µM
TGI (K-562 leukemia): > 58.2 µM
TGI (OVCAR-8 ovarian): > 100 µM
TGI (MALME-3M melanoma): > 100 µM
TGI (SNB-19 CNS): > 100 µM
TGI (SF-268 CNS): > 100 µM
TGI (SN12C renal): > 100 µM
TGI (MCF7 breast): > 100 µM
TGI (MOLT-4 leukemia): > 100 µM
TGI (M14 melanoma): > 100 µM

COc1ccc(N=C2C(=S)N(c3ccc(OC)cc3)/C(=N/S(=O)(=O)c3ccccc3)N2c2ccccc2)cc1
TGI (CAKI-1 renal): 28.2 µM
TGI (K-562 leukemia): > 100 µM
TGI (OVCAR-8 ovarian): 5.47 µM
TGI (MALME-3M melanoma): 36.2 µM
TGI (SNB-19 CNS): > 61 µM
TGI (SF-268 CNS): 29.2 µM
TGI (SN12C renal): 32.4 µM
TGI (MCF7 breast): 35.8 µM
TGI (MOLT-4 leukemia): > 100 µM
TGI (M14 melanoma): 12.2 µM

CC(C)CCn1nc(N)c2nc3ccccc3nc21
TGI (CAKI-1 renal): > 100 µM
TGI (K-562 leukemia): > 100 µM
TGI (OVCAR-8 ovarian): > 100 µM
TGI (MALME-3M melanoma): > 100 µM
TGI (SNB-19 CNS): > 100 µM
TGI (SF-268 CNS): > 100 µM
TGI (SN12C renal): > 100 µM
TGI (MCF7 breast): > 100 µM
TGI (MOLT-4 leukemia): 94.9 µM
TGI (M14 melanoma): > 100 µM

Cn1ccnc1Sc1ccc(C=Nc2ccc3nc(SCC(=O)NC4CCCCC4)sc3c2)cc1[N+](=O)[O-]
TGI (CAKI-1 renal): > 100 µM
TGI (K-562 leukemia): > 100 µM
TGI (OVCAR-8 ovarian): > 100 µM
TGI (MALME-3M melanoma): > 100 µM
TGI (SNB-19 CNS): 55.9 µM
TGI (SF-268 CNS): > 100 µM
TGI (SN12C renal): > 100 µM
TGI (MCF7 breast): > 100 µM
TGI (MOLT-4 leukemia): > 100 µM
TGI (M14 melanoma): > 100 µM

CSC(SC)=C1C(=O)N(c2ccccc2)N=C1C
TGI (CAKI-1 renal): 65.8 µM
TGI (K-562 leukemia): 66.8 µM
TGI (OVCAR-8 ovarian): > 100 µM
TGI (MALME-3M melanoma): 58.8 µM
TGI (SNB-19 CNS): 98.1 µM
TGI (SF-268 CNS): > 100 µM
TGI (SN12C renal): 97.3 µM
TGI (MCF7 breast): 46 µM
TGI (MOLT-4 leukemia): 52.9 µM
TGI (M14 melanoma): 60.8 µM

O=C(CCc1cccc(O)c1)NCCCNC(=O)CCc1cccc(O)c1
TGI (CAKI-1 renal): > 100 µM
TGI (K-562 leukemia): > 100 µM
TGI (OVCAR-8 ovarian): > 100 µM
TGI (MALME-3M melanoma): > 100 µM
TGI (SNB-19 CNS): > 100 µM
TGI (SF-268 CNS): > 100 µM
TGI (SN12C renal): > 100 µM
TGI (MCF7 breast): > 100 µM
TGI (MOLT-4 leukemia): > 100 µM
TGI (M14 melanoma): > 100 µM

N#CC(=N)c1ncn(-c2ccccc2N)c1N
TGI (CAKI-1 renal): > 100 µM
TGI (K-562 leukemia): > 100 µM
TGI (OVCAR-8 ovarian): > 100 µM
TGI (MALME-3M melanoma): > 100 µM
TGI (SNB-19 CNS): > 100 µM
TGI (SF-268 CNS): > 100 µM
TGI (SN12C renal): > 100 µM
TGI (MCF7 breast): > 100 µM
TGI (MOLT-4 leukemia): > 100 µM
TGI (M14 melanoma): > 100 µM

COc1cc(C=C2C(=O)NC(=S)NC2=O)cc(OC)c1OC
TGI (CAKI-1 renal): > 100 µM
TGI (K-562 leukemia): > 100 µM
TGI (OVCAR-8 ovarian): > 100 µM
TGI (MALME-3M melanoma): > 100 µM
TGI (SNB-19 CNS): > 100 µM
TGI (SF-268 CNS): > 100 µM
TGI (SN12C renal): > 100 µM
TGI (MCF7 breast): > 100 µM
TGI (MOLT-4 leukemia): > 100 µM
TGI (M14 melanoma): > 100 µM

Clc1ccc(Cl)c(SCCCN2CCNCC2)c1
TGI (CAKI-1 renal): 41.8 µM
TGI (K-562 leukemia): 39.9 µM
TGI (OVCAR-8 ovarian): 46 µM
TGI (MALME-3M melanoma): 31.8 µM
TGI (SNB-19 CNS): 34.4 µM
TGI (SF-268 CNS): 33.9 µM
TGI (SN12C renal): 37.8 µM
TGI (MCF7 breast): 40 µM
TGI (MOLT-4 leukemia): 40.6 µM
TGI (M14 melanoma): 35.3 µM
